This is an account of results in patent US5164381A, “Pharmacologically active 1,5-diaryl-3-substituted pyrazoles and method for synthesizing the same” (Ortho Pharmaceutical Corporation, priority 1991, dated 1992).

For the first assay, the system named is Lewis strain laboratory rats. Put plainly: In vivo alleviation of inflammation: polyarthritis (adjuvant, Mycobacterium butyricum) in rats, inhibition of paw volume increase. The note with it: Rattus norvegicus, po, rat; read-out: ED50 (effective dose to obtain a 50% inhibition of inflammation). The procedure: Polyarthritis was induced in Lewis strain laboratory rats (weight=about 200 grams) by injection of a suspension of Mycobacterium butyricum in mineral oil into the subplantar tissue of the mammal's hind paws. On day 10 after the injection, the rats were assigned to groups, and paw volumes and body weights were recorded. Paw volumes of the contralateral, uninjected hind paw were determined by mercury plethylsmography. Per oral (p.o.) dosing began and continued for five consecutive days thereafter. On day 14 after the initial injection, approximately four hours after the final dose was administered, paw volumes and body weights were recorded and quantitated.
Anti-inflammatory activity of the substituted pyrazole compounds is expressed as the percent inhibition of paw volume increase.
Turning to `COc1ccc(-c2cc(CCC(=O)N(C)O)nn2-c2ccc(Cl)cc2)cc1` [Compound 112], the ED50 (usually the dose at which the effect has come halfway, by size or by number of responders) was 16.3 mg/kg.

Regarding `COc1ccc(-n2nc(CCCO)cc2-c2ccc(C(F)(F)F)cc2)cc1` [Compound 56, 5-(4-trifluoromethylphenyl)-3-(3-hydroxypropyl)-1-(4-methoxyphenyl) pyrazole], the ED50 came to 3 mg/kg.

For the compound `COc1ccc(-n2nc(CCC(=O)N(C)OC(=O)CCl)cc2-c2ccc(Cl)cc2)cc1` [Compound 139, 3-[5-(4-Chlorophenyl)-1-(4-methoxyphenyl)-3-pyrazolyl]N-chloroacetyloxy-N-methylpropanamide], the ED50 was determined as 6 mg/kg.

The same assay, now with this note: po, 336 h; 9 mpk p.o., rat; read-out: % INH. p.o. (percentage inhibition of pad swelling).
On to `COc1ccc(-n2nc(CCCN(O)S(C)(=O)=O)cc2-c2ccc(Cl)cc2)cc1` [Compound 156], for which the inhibition in vivo at 9 mg/kg was 34%.

Staying with this assay, now noted: po, 336 h; 10 mpk p.o., rat; read-out: % INH. p.o. (percentage inhibition of pad swelling).
As for `COc1ccc(-n2nc(CCCN(O)C(=O)c3ccccc3)cc2-c2ccc(Cl)cc2)cc1` [Compound 155], the inhibition in vivo at 10 mg/kg is 45%.

Take `CCc1ccc(-c2cc(CCC(=O)O)nn2-c2ccc(OC)cc2)cc1` [Compound 110]: the inhibition in vivo at 10 mg/kg was 51%.

On to `CCOC(=O)C(=O)N(O)CCCc1cc(-c2ccc(Cl)cc2)n(-c2ccc(OC)cc2)n1` [Compound 157, Ethyl N-[3-[5-(4-chlorophenyl)-1-(4-methoxyphenyl)-3-pyrazolyl]-propyl]-hydroxyoxamate], for which the inhibition in vivo at 10 mg/kg amounted to 51%.

As for `COc1ccc(-n2nc(CCC(=O)N(C)OC(=O)CCC(=O)N3CCOCC3)cc2-c2ccc(Cl)cc2)cc1` [Compound 136], the inhibition in vivo at 10 mg/kg was 38%.

In the case of `COc1ccc(-c2cc(CCC(=O)N(C)O)nn2-c2ccc(OC)cc2)cc1` [Compound 113], the inhibition in vivo at 10 mg/kg stood at 34%.

`CCOC(=O)C(C)N(O)C(=O)CCc1cc(-c2ccc(Cl)cc2)n(-c2ccc(OC)cc2)n1` (stereo not drawn) [Compound 144]: the inhibition in vivo at 10 mg/kg stood at 55%.

In the case of `COc1ccc(-n2nc(CCCN(O)C(C)=O)cc2-c2ccc(Cl)cc2)cc1` [Compound 152, N-[3-[5-(4-Chlorophenyl)-1-(4-methoxyphenyl)-3-pyrazolyl]propyl]-N-hydroxy-acetamide], the inhibition in vivo at 10 mg/kg amounted to 40%.

For `COc1ccc(-n2nc(CCC(=O)N(O)C(C)C(=O)O)cc2-c2ccc(Cl)cc2)cc1` (stereo not drawn) [Compound 145], the inhibition in vivo at 10 mg/kg is 61%.

Take `COc1ccc(-n2nc(CCC(=O)N(C)O)cc2-c2cccc(C)c2)cc1` [Compound 115]: the inhibition in vivo at 10 mg/kg stood at 35%.

As for `COc1ccc(-n2nc(CCC(=O)O)cc2-c2ccc(C)c(C)c2)cc1` [Compound 107], the inhibition in vivo at 10 mg/kg was found to be 30%.

Regarding `COc1ccc(-n2nc(CCC(=O)O)cc2-c2ccccc2C)cc1` [Compound 109], the inhibition in vivo at 10 mg/kg turned out to be 1%.

As for `COc1ccc(-n2nc(CCC(=O)N(O)C(C)=O)cc2-c2ccc(Cl)cc2)cc1` [Compound 171, N-Acetyl-3-[5-(4-chlorophenyl)-1-(4-methoxyphenyl)-3-pyrazolyl]-N-hydroxy-propanamide], the inhibition in vivo at 10 mg/kg was 62%.

Consider `COCC(=O)ON(C)C(=O)CCc1cc(-c2ccc(Cl)cc2)n(-c2ccc(OC)cc2)n1` [Compound 142], for which the inhibition in vivo at 10 mg/kg turned out to be 67%.

Staying with this assay, now noted: po, 336 h; 15 mpk p.o., rat; read-out: % INH. p.o. (percentage inhibition of pad swelling).
In the case of `COc1ccccc1-n1nc(CCC(=O)N(C)O)cc1-c1ccc(Cl)cc1` [Compound 104], the inhibition in vivo at 15 mg/kg amounted to 39%.

On to `COc1ccc(-n2nc(CCC(=O)c3ccccc3)cc2-c2ccc(Cl)cc2)cc1` [Compound 181], for which the inhibition in vivo at 15 mg/kg stood at 30%.

Take `COc1ccc(-n2nc(CCC(=NNc3nccs3)c3ccccc3)cc2-c2ccc(Cl)cc2)cc1` [Compound 176]: the inhibition in vivo at 15 mg/kg came out at 6%.

Turning to `CCOc1ccc(-n2nc(CCC(=O)N(C)O)cc2-c2ccc(Cl)cc2)cc1` [Compound 76], the inhibition in vivo at 15 mg/kg amounted to 43%.

For the compound `COc1ccc(-n2nc(CCC(=O)Nc3nnn[nH]3)cc2-c2ccc(Cl)cc2)cc1` [Compound 90], the inhibition in vivo at 15 mg/kg is 32%.

Turning to `COc1ccc(-n2nc(CCCOCC(=O)O)cc2-c2ccc(Cl)cc2)cc1` [Compound 93], the inhibition in vivo at 15 mg/kg came out at 17%.

In the case of `Nc1ccc(-n2nc(CCCO)cc2-c2ccc(Cl)cc2)cc1` [Compound 69], the inhibition in vivo at 15 mg/kg amounted to 17%.

Turning to `COc1ccc(-n2nc(CCC(O)c3ccccc3)cc2-c2ccc(Cl)cc2)cc1` (stereo not drawn) [Compound 178], the inhibition in vivo at 15 mg/kg came out at 8%.

In the case of `COc1ccc(-n2nc(CCC(=O)N(OC(C)=O)C(C)=O)cc2-c2ccc(Cl)cc2)cc1` [Compound 172, N-Acetyl-N-acetoxy-[5-(4-chlorophenyl)-1-(4-methoxyphenyl)-3-pyrazolyl]-propanamide], the inhibition in vivo at 15 mg/kg was 83%.

For the compound `CCOC(=O)C(=O)NCCc1cc(-c2ccc(Cl)cc2)n(-c2ccc(OC)cc2)n1` [Compound 160, Ethyl 2-[5-(4-chlorophenyl)-1-(4-methoxyphenyl)-3-pyrazolyl]-ethylamine-N-oxoacetate], the inhibition in vivo at 15 mg/kg turned out to be 9%.

The same assay, now with this note: po, 336 h; 25 mpk p.o., rat; read-out: % INH. p.o. (percentage inhibition of pad swelling).
Regarding `OCCCc1cc(-c2ccc(Cl)cc2)n(-c2ccccc2C(F)(F)F)n1` [Compound 60], the inhibition in vivo at 25 mg/kg was found to be 8%.

Regarding `COc1ccc(-n2nc(CCCNO)cc2-c2ccc(Cl)cc2)cc1` [Compound 151, N-[3-[5-(4-Chlorophenyl)-1-(4-methoxyphenyl)-3-pyrazolyl]propyl]hydroxyl-amine], the inhibition in vivo at 25 mg/kg was 42%.

For `COc1ccc(-n2nc(CCCO)cc2-c2ccc(F)cc2)cc1` [Compound 30], the inhibition in vivo at 25 mg/kg is 42%.

`COc1ccc(-n2nc(CCC=NO)cc2-c2ccc(Cl)cc2)cc1` [Compound 26, 5-(4-Chlorophenyl)-3-(3-oximinopropyl)-1-(4-methoxyphenyl) pyrazole]: the inhibition in vivo at 25 mg/kg was 79%.

In the case of `COCCCc1cc(-c2ccc(Cl)cc2)n(-c2ccc(OC)cc2)n1` [Compound 24, 3-[5-(4-Chlorophenyl)-1-(4-methoxyphenyl)-3-pyrazolyl] propyl methyl ether], the inhibition in vivo at 25 mg/kg worked out at 64%.

Still in this assay, the particulars now being: po, 336 h; 30 mpk p.o., rat; read-out: % INH. p.o. (percentage inhibition of pad swelling).
Turning to `COc1ccc(-n2nc(CCCN)cc2-c2ccc(Cl)cc2)cc1` [Compound 96, 3-[5-(4-Chlorophenyl)-1-(4-methoxyphenyl)-3-pyrazolyl]propylamine], the inhibition in vivo at 30 mg/kg came out at 56%.

Still in this assay, the particulars now being: po, 336 h; 40 mpk p.o., rat; read-out: % INH. p.o. (percentage inhibition of pad swelling).
Consider `COC(=O)CCc1cc(-c2ccc(Cl)cc2)n(-c2ccc(OC)cc2)n1` [Compound 19, Methyl 3-[5-(4-chlorophenyl)-1-(4-methoxyphenyl)-3-pyrazolyl] propionate], for which the inhibition in vivo at 40 mg/kg is 69%.

As for `COc1ccc(-n2nc(CCC(=O)N(O)c3ccccc3)cc2-c2ccc(Cl)cc2)cc1` [Compound 84, 3-[5-(4-chlorophenyl)-1-(4-methoxyphenyl)-3-pyrazolyl]-N-hydroxy-N-phenylpropanamide], the inhibition in vivo at 40 mg/kg is 27%.

Regarding `CN(O)C(=O)CCc1cc(-c2ccc(Cl)cc2)n(-c2ccccc2)n1` [Compound 67, 3-[5-(4-Chlorophenyl)-1-phenyl-3-pyrazolyl]-N-hydroxy-N-methyl propanamide], the inhibition in vivo at 40 mg/kg is 30%.

With `COc1ccc(-n2nc(CCC(C)O)cc2-c2ccc(Cl)cc2)cc1` (stereo not drawn) [Compound 20, 5-(4-Chlorophenyl)-3-(3-hydroxybutyl)-1-(4-methoxyphenyl) pyrazole], the inhibition in vivo at 40 mg/kg is 19%.

Staying with this assay, now noted: po, 336 h; 50 mpk p.o., rat; read-out: % INH. p.o. (percentage inhibition of pad swelling).
Turning to `OCCCc1cc(-c2ccc(Cl)cc2)n(-c2ccc(Cl)cc2)n1` [Compound 4], the inhibition in vivo at 50 mg/kg stood at 68%.

With `OCCCc1cc(-c2ccc(Cl)cc2)n(-c2ccc(Cl)c(Cl)c2)n1` [Compound 8], the inhibition in vivo at 50 mg/kg came out at 41%.
